Assay results as given in patent US20200062712A1, “ALDEHYDE TRAPPING COMPOUNDS AND USES THEREOF” (Aldeyra Therapeutics, Inc., priority 2016, published 2020).

Experiments:
[1] = Formation of 4-HNE adduct with exemplary compounds (AUC of adduct over time); settings: one equivalent of 4-HNE and 2 equivalents of compound; performed twice
Protocol: The ability of exemplary compounds to react with 4-HNE and form the corresponding adduct was measured. All compounds were analyzed by HPLC at 254 nm for their purity prior to the reaction.
Area under the curve (AUC) of each adduct was plotted over time.

[2] = tested on: brain slices of B6.129-Aldh5a1tm1Kmg/J (SSADH null) mice; assay: Ex vivo SSADH study: GABA and GHB content of brain slices and incubation media by HPLC; assay type: cell-based; settings: 100 μg/mL, 24 hours incubation; SSADH null mouse brain slices
Protocol: Three and one half (3.5) days after birth, B6.129-Aldh5a1^tm1Kmg/J (SSADH null) mice and wild type (wt) littermates animals were sacrificed and brains were harvested. […] Brain slices and the incubation media (sup) were then analyzed by HPLC for GHB and GABA content.

[3] = Rate of formation of aldehyde (4-HNE) adducts, HPLC product peak over time; settings: for Formation of Product 7 Hours (ranking, most effective to least) / Formation of Product 23 Hours (ranking, most effective to least): rank 1 = most effective; for Gradient (rate of product peak increase, formation of aldehyde adduct): best fit line
Protocol: It is not possible to conclude if this is the result of poor dissociation (from cyclodextrin) or poor interaction with the aldehyde. Best fit lines over this period give excellent fit to data. […] It can be used to relatively rank each of the samples examined, including NS2. The data were first evaluated over a 7 h time window.
Similar results were obtained when the window was extended to 23 h. However, two of the compounds yielded lower R. Sq. values in this context.
During this time period 3 of the 5 samples reached equilibrium.

[4] = Consumption of 4-HNE over time, HPLC at 254 nm; settings: for Consumption of 4-HNE 7 Hours (ranking, most effective to least): rank 1 = most effective; for Consumption of 4-HNE 23 Hours (ranking, most effective to least): small differences between samples ranking 1-4, essentially identical; for Decrease in HNE versus corresponding increase in adduct: one-week time period
Description: Five of 6 samples show consumption of 4-HNE. One sample (2-(3-aminoquinolin-2-yl)propan-2-ol) overlaps the 4-HNE HPLC peak using the current method. Best fit lines over this period give poorer fit to data than product formation data. Rate of 4-HNE consumption can be used as an approximation of binding kinetics.
The samples appeared to reach equilibrium, with the ongoing decrease in HNE amounts possibly due to another degradative pathway.

abcr−/− knockout mice = assay type: in vivo; settings: 10 mg/kg IP daily for 56 days, p=0.011
Protocol: This experiment is designed to establish proof of concept that chronic intraperitoneal administration of a RAL-trap compound lowers the accumulation rate of A2E in B6:129SvEv-Abcr (abcr−/−) mice.
The study was performed with B6:129SvEv-Abcr (abcr−/−) mice. Treatment groups included 24 mice (males and females) per treatment condition. Each animal was treated with one of the following conditions: • Control: a commercially available compound known clinically to modulate retinal function in humans and known experimentally to form a Schiff base adduct with free RAL, both in vitro and in vivo in animal models. • Vehicle • Compound • Untreated
A third group of animals served as untreated controls and were sacrificed on Day 1 of the study.
The experiments described herein used a variety of biology and biochemistry services. If necessary, non-toxic doses of compounds of the invention, formulated for treatment with an eye drop or other formations, may be established, e.g., in the rabbit with an ocular irritation protocol. […] Light responses were characterized by ERG (Weng, et al., Cell 98:13, 1999). Intracellular A2E concentration of retinal RPE cell extracts were measured using an analytical method such as those described by Karan et al., 2005; Radu et al., 2003; and Parish et al., PNAS 95:14609, 1998.

[5] = 7 h time window, samples in cyclodextrin

SMILES	Formation of the corresponding adduct with 4-HNE [1]	GABA content compared to the controls [2]	GHB content compared to the controls [2]	Formation of Product 7 Hours (ranking, most effective to least) [3]	Formation of Product 23 Hours (ranking, most effective to least) [3]	Gradient (rate of product peak increase, formation of aldehyde adduct) [3, 5]	Gradient (rate of product peak increase, formation of aldehyde adduct) ([3]; window extended to 23 h)	Consumption of 4-HNE 7 Hours (ranking, most effective to least) [4]	Consumption of 4-HNE 23 Hours (ranking, most effective to least) [4]	Gradient (rate of 4-HNE consumption) ([4]; 23 h)	Gradient (rate of 4-HNE consumption) ([4]; first 7 h, analysis at 254 nm)	Decrease in HNE versus corresponding increase in adduct [4]	Reduction of formation of A2E compared with vehicle-treated controls (abcr−/− knockout mice)
CC(C)(O)c1nc2ccccc2cc1N [Compound I-1, 2-(3-aminoquinolin-2-yl)propan-2-ol]	formed the corresponding adduct with 4-HNE	decreased	decreased	1	1	(Gradient 3.68, R.	(Gradient 1.99, R.						
CC(C)(O)c1nc2cccc(Cl)c2cc1N [Compound I-2, 2-(3-amino-5-chloroquinolin-2yl)propan-2-ol]				6	6	(Gradient 0.86, R.	(Gradient 0.44, R.	3	2	(Gradient −0.04, R.	(Gradient −0.05, R.		
CC(C)(O)c1nc2cc(Cl)ccc2cc1N [Compound I-3, 2-(3-amino-7-chloroquinolin-2-yl)propan-2-ol]				3	3	(Gradient 2.02, R.	(Gradient 1.21, R.	2	1	(Gradient −0.05, R.	(Gradient −0.06, R.	decrease in HNE is greater than the corresponding increase in adduct	
CC(C)(O)c1nc2c(Cl)cccc2cc1N [Compound I-4, 2-(3-amino-8-chloroquinolin-2-yl)propan-2-ol]				5	5	(Gradient 1.18, R.	(Gradient 0.81, R.	5	5	(Gradient −0.02, R.	(Gradient −0.01, R.	decrease in HNE is greater than the corresponding increase in adduct	
CC(C)(O)c1nc2ccc(Br)cc2cc1N [Compound I-5, 2-(3-amino-6-bromoquinolin-2-yl)propan-2-ol]				4	4	(Gradient 1.63, R.	(Gradient 1.16, R.	4	4	(Gradient −0.04, R.	(Gradient −0.04, R.		
CC(C)(O)c1nc2ccc(Cl)cc2cc1N [NS2, 2-(3-amino-6-chloroquinolin-2-yl)propan-2-ol, reference compound]	formed the corresponding adduct with 4-HNE	decreased	decreased	2	2	(Gradient 2.22, R.	(Gradient 1.33, R.	1	3	(Gradient −0.04, R.	(Gradient −0.15, R.		71%
